In US11331369B2, “Endoparasitic depsipeptides” (Zoetis Services LLC, priority 2017, dated 2022):

Test system: microfilariae of Dirofilaria immitis
Assay: Dirofilaria immitis, Microfilaria (DiMF) In vitro Assay
Assay type: cell-based
Details: 72 h, read-out: DiMF Minimum Effective Dose (MED), approximately 72 hours incubation, microfilariae assessed for survival or paralysis

| Compound | minimal effective concentration |
| --- | --- |
| Cc1cnn(Cc2ccc(C[C@H]3OC(=O)[C@H](CC(C)C)N(C)C(=O)[C@@H](C)OC(=O)[C@H](CC(C)C)N(C)C(=O)[C@@H](Cc4ccc(Cn5cc(Br)cn5)cc4)OC(=O)[C@H](CC(C)C)N(C)C(=O)[C@@H](C)OC(=O)[C@H](CC(C)C)N(C)C3=O)cc2)c1 [Example 1a-24, (3S,6R,9S,12R,15S,18R,21S,24R)-6-(4-((4-bromo-1H-pyrazol-1-yl)methyl)benzyl)-3,9,15,21-tetraisobutyl-4,10,12,16,22,24-hexamethyl-18-(4-((4-methyl-1H-pyrazol-1-yl)methyl)benzyl)-1,7,13,19-tetraoxa-4,10,16,22-tetraazacyclotetracosan-2,5,8,11,14,17,20,23-octaone] | 0.001 to 0.01 µM |
| Cc1cnn(Cc2ccc(C[C@H]3OC(=O)[C@H](CC(C)C)N(C)C(=O)[C@@H](C)OC(=O)[C@H](CC(C)C)N(C)C(=O)[C@@H](Cc4ccc(Cn5nc(C)c(S(=O)(=O)N6CCCCC6)c5C)cc4)OC(=O)[C@H](CC(C)C)N(C)C(=O)[C@@H](C)OC(=O)[C@H](CC(C)C)N(C)C3=O)cc2)c1 [Example 1a-25, (3S,6R,9S,12R,15S,18R,21S,24R)-6-(4-((3,5-dimethyl-4-(piperidin-1-ylsulfonyl)-1H-pyrazol-1-yl)methyl)benzyl)-3,9,15,21-tetraisobutyl-4,10,12,16,22,24-hexamethyl-18-(4-((4-methyl-1H-pyrazol-1-yl)methyl)benzyl)-1,7,13,19-tetraoxa-4,10,16,22-tetraazacyclotetracosan-2,5,8,11,14,17,20,23-octaone] | 0.01 to 0.1 µM |
| Cc1cnn(Cc2ccc(C[C@H]3OC(=O)[C@H](CC(C)C)N(C)C(=O)[C@@H](C)OC(=O)[C@H](CC(C)C)N(C)C(=O)[C@@H](Cc4ccc(Cn5ccc(-c6ccccc6)n5)cc4)OC(=O)[C@H](CC(C)C)N(C)C(=O)[C@@H](C)OC(=O)[C@H](CC(C)C)N(C)C3=O)cc2)c1 [Example 1a-28, (3S,6R,9S,12R,15S,18R,21S,24R)-3,9,15,21-tetraisobutyl-4,6,10,16,18,22-hexamethyl-12-(4-((4-methyl-1H-pyrazol-1-yl)methyl)benzyl)-24-(4-((3-phenyl-1H-pyrazol-1-yl)methyl)benzyl)-1,7,13,19-tetraoxa-4,10,16,22-tetraazacyclotetracosan-2,5,8,11,14,17,20,23-octaone] | 0.01 to 0.1 µM |
| Cc1cnn(Cc2ccc(C[C@H]3OC(=O)[C@H](CC(C)C)N(C)C(=O)[C@@H](C)OC(=O)[C@H](CC(C)C)N(C)C(=O)[C@@H](Cc4ccc(Cn5ccc(C(F)(F)F)n5)cc4)OC(=O)[C@H](CC(C)C)N(C)C(=O)[C@@H](C)OC(=O)[C@H](CC(C)C)N(C)C3=O)cc2)c1 [Example 1a-29, (3S,6R,9S,12R,15S,18R,21S,24R)-3,9,15,21-tetraisobutyl-4,6,10,16,18,22-hexamethyl-12-(4-((4-methyl-1H-pyrazol-1-yl)methyl)benzyl)-24-(4-((3-(trifluoromethyl)-1H-pyrazol-1-yl)methyl)benzyl)-1,7,13,19-tetraoxa-4,10,16,22-tetraazacyclotetracosan-2,5,8,11,14,17,20,23-octaone] | 0.01 to 0.1 µM |
| Cc1cnn(Cc2ccc(C[C@H]3OC(=O)[C@H](CC(C)C)N(C)C(=O)[C@@H](C)OC(=O)[C@H](CC(C)C)N(C)C(=O)[C@@H](Cc4ccc(Cn5cc(C(F)(F)F)cn5)cc4)OC(=O)[C@H](CC(C)C)N(C)C(=O)[C@@H](C)OC(=O)[C@H](CC(C)C)N(C)C3=O)cc2)c1 [Example 1a-30, (3S,6R,9S,12R,15S,18R,21S,24R)-3,9,15,21-tetraisobutyl-4,6,10,16,18,22-hexamethyl-12-(4-((4-methyl-1H-pyrazol-1-yl)methyl)benzyl)-24-(4-((4-(trifluoromethyl)-1H-pyrazol-1-yl)methyl)benzyl)-1,7,13,19-tetraoxa-4,10,16,22-tetraazacyclotetracosan-2,5,8,11,14,17,20,23-octaone] | 0.01 to 0.1 µM |
| CC(C)C[C@H]1C(=O)O[C@H](Cc2ccc(Cn3cc(Br)c(C#N)n3)cc2)C(=O)N(C)[C@@H](CC(C)C)C(=O)O[C@H](C)C(=O)N(C)[C@@H](CC(C)C)C(=O)O[C@H](Cc2ccc(Cn3cc(N)cn3)cc2)C(=O)N(C)[C@@H](CC(C)C)C(=O)O[C@H](C)C(=O)N1C [Example 1a-32, 1-(4-(((2R,5S,8R,11S,14R,17S,20R,23S)-14-(4-((4-amino-1H-pyrazol-1-yl)methyl)benzyl)-5,11,17,23-tetraisobutyl-4,8,10,16,20,22-hexamethyl-3,6,9,12,15,18,21,24-octaoxo-1,7,13,19-tetraoxa-4,10,16,22-tetraazacyclotetracosan-2-yl)methyl)benzyl)-4-bromo-1H-pyrazole-3-carbonitrile] | 0.01 to 0.1 µM |
| CC(C)C[C@H]1C(=O)O[C@H](Cc2ccc(Cn3nccc3Cl)cc2)C(=O)N(C)[C@@H](CC(C)C)C(=O)O[C@H](C)C(=O)N(C)[C@@H](CC(C)C)C(=O)O[C@H](Cc2ccc(Cn3ccc(Cl)n3)cc2)C(=O)N(C)[C@@H](CC(C)C)C(=O)O[C@H](C)C(=O)N1C [Example 1a-46, (3S,6R,9S,12R,15S,18R,21S,24R)-6-(4-((3-chloro-1H-pyrazol-1-yl)methyl)benzyl)-18-(4-((5-chloro-1H-pyrazol-1-yl)methyl)benzyl)-3,9,15,21-tetraisobutyl-4,10,12,16,22,24-hexamethyl-1,7,13,19-tetraoxa-4,10,16,22-tetraazacyclotetracosan-2,5,8,11,14,17,20,23-octaone] | 0.001 to 0.01 µM |
| Cc1cc(CC#N)nn1Cc1ccc(C[C@H]2OC(=O)[C@H](CC(C)C)N(C)C(=O)[C@@H](C)OC(=O)[C@H](CC(C)C)N(C)C(=O)[C@@H](Cc3ccc(Cn4nc(CC#N)cc4C)cc3)OC(=O)[C@H](CC(C)C)N(C)C(=O)[C@@H](C)OC(=O)[C@H](CC(C)C)N(C)C2=O)cc1 [Example 1b-7, 2,2′-((((((2R,5S,8R,11S,14R,17S,20R,23S)-5,11,17,23-tetraisobutyl-4,8,10,16,20,22-hexamethyl-3,6,9,12,15,18,21,24-octaoxo-1,7,13,19-tetraoxa-4,10,16,22-tetraazacyclotetracosane-2,14-diyl)bis(methylene))bis(4,1-phenylene))bis(methylene))bis(5-methyl-1H-pyrazole-1,3-diyl))diacetonitrile] | 0.001 to 0.01 µM |
| CC(C)C[C@H]1C(=O)O[C@H](Cc2ccc(Cn3nc(CO)cc3C3CC3)cc2)C(=O)N(C)[C@@H](CC(C)C)C(=O)O[C@H](C)C(=O)N(C)[C@@H](CC(C)C)C(=O)O[C@H](Cc2ccc(Cn3nc(CO)cc3C3CC3)cc2)C(=O)N(C)[C@@H](CC(C)C)C(=O)O[C@H](C)C(=O)N1C [Example 1b-8, (3S,6R,9S,12R,15S,18R,21S,24R)-6,18-bis(4-((5-cyclopropyl-3-(hydroxymethyl)-1H-pyrazol-1-yl)methyl)benzyl)-3,9,15,21-tetraisobutyl-4,10,12,16,22,24-hexamethyl-1,7,13,19-tetraoxa-4,10,16,22-tetraazacyclotetracosan-2,5,8,11,14,17,20,23-octaone] | 0.001 to 0.01 µM |
